Test results taken from ChEMBL document CHEMBL5465560, “Selectivity Literature for EUbOPEN Chemogenomic Library” (2024).

How the values were obtained:
[1] = biological target: Acetylcholine receptor subunit alpha (Homo sapiens, UniProt P02708); test: Selectivity interaction (Panel of kinases, GPCRs, ion channels and transporters (enzymatic assay)) EUB0000266bCl CHRNA1
[2] = biological target: cGMP-inhibited 3',5'-cyclic phosphodiesterase 3A (Homo sapiens, UniProt Q14432); test: Selectivity interaction (Phosphodiesterase 3 from human platelets ) EUB0000877a PDE3A; type: cell-based, Platelet
[3] = biological target: T1, Serine/threonine-protein kinase Nek2 (Homo sapiens) (UniProt P51955); test: Selectivity interaction (Kinase panel (literature)) EUB0001199aCl NEK2; conditions: at 1 µM
T1 sequence (whole entry): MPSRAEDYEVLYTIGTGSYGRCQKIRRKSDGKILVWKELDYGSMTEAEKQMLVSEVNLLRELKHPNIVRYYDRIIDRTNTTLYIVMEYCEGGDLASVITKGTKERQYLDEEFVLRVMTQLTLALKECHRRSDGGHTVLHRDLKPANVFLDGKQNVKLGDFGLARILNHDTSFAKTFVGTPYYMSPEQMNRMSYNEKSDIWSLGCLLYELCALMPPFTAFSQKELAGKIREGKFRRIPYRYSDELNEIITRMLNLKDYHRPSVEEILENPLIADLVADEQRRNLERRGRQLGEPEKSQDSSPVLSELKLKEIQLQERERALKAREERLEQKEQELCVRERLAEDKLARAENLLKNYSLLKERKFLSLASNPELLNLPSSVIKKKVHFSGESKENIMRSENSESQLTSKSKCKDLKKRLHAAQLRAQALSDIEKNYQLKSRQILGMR

[4] = biological target: T2, Activin receptor type-1B (Homo sapiens) (UniProt P36896); test: Selectivity interaction (Kinase panel (Z-LYTE Assay)) EUB0001632a ACVR1B; conditions: at 10 µM
T2 sequence (whole entry): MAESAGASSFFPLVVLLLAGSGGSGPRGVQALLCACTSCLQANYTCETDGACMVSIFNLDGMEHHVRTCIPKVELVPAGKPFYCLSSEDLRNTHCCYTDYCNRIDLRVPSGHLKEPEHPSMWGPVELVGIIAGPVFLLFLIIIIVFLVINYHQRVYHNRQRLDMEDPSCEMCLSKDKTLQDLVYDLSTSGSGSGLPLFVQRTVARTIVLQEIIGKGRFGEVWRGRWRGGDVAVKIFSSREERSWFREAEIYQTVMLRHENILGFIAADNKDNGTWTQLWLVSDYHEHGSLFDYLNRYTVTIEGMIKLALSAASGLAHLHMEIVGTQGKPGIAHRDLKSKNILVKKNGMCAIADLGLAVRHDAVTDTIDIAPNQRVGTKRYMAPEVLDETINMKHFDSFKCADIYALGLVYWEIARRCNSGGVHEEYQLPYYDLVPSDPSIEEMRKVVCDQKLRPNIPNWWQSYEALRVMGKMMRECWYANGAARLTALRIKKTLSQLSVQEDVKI

[5] = biological target: Tyrosine-protein kinase Fer (Homo sapiens) (UniProt P16591); test: Selectivity interaction (KinomeScan (DiscoverX)) EUB0001079a FER; conditions: at 1 µM
[6] = biological target: T3, Dual specificity mitogen-activated protein kinase kinase 5 (Homo sapiens) (UniProt Q13163); test: Selectivity interaction (ProQinase) EUB0000171b MAP2K5
T3 sequence (whole entry): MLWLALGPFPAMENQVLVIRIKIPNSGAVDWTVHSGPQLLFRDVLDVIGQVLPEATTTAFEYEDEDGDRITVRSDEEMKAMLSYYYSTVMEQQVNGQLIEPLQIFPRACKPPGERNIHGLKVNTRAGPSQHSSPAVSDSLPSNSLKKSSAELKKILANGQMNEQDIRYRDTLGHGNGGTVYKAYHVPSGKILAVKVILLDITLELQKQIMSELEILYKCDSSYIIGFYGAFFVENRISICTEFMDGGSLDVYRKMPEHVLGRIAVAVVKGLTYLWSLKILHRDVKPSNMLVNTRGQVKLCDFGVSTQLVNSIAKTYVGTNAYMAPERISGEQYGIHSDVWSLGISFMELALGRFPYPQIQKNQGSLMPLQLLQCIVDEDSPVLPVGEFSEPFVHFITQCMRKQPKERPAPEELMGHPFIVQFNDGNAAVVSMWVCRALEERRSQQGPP

[7] = biological target: Protein polybromo-1 (Homo sapiens) (UniProt Q86U86); test: Selectivity interaction (Human bromodomain panel (DSF assay)) EUB0000233b PBRM1
[8] = test system: Phosphatidylinositol 4,5-bisphosphate 3-kinase catalytic subunit alpha isoform (Homo sapiens), P42336 [Q546K]; test: (§1) Selectivity interaction (KinomeScan (DiscoverX)) EUB0000045b PIK3CA
Chain of Phosphatidylinositol 4,5-bisphosphate 3-kinase catalytic subunit alpha isoform (Homo sapiens), P42336 [Q546K] (P42336 whole entry Q546K, canonical isoform): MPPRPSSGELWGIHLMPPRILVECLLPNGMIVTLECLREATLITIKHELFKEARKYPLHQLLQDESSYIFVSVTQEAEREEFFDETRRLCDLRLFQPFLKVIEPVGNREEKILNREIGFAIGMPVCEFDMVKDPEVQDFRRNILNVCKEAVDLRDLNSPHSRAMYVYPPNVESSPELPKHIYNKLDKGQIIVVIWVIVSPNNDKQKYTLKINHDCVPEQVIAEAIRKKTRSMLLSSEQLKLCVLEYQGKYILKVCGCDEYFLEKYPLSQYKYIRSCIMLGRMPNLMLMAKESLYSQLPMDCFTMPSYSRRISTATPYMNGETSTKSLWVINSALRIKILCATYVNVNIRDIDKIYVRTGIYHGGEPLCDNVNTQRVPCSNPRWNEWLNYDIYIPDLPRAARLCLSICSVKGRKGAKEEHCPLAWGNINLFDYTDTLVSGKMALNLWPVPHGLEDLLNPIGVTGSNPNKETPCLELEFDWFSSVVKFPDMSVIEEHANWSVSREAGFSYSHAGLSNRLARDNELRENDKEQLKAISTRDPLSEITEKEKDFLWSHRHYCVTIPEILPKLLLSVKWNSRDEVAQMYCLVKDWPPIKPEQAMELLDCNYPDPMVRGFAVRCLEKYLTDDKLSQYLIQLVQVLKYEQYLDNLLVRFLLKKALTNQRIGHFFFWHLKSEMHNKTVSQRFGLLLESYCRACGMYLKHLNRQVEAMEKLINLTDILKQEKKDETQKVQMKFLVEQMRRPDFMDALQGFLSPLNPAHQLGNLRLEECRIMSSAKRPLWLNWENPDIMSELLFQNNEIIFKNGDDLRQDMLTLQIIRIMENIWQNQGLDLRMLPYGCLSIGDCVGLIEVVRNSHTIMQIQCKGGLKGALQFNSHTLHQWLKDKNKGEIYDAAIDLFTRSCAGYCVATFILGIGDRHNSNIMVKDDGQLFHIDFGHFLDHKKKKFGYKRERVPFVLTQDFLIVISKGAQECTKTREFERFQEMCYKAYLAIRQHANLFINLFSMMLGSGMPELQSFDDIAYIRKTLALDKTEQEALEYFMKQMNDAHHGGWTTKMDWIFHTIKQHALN

[9] = test system: Phosphatidylinositol 4,5-bisphosphate 3-kinase catalytic subunit alpha isoform (Homo sapiens), P42336 [E545K]; test: as §1
[10] = biological target: Phosphatidylinositol 4,5-bisphosphate 3-kinase catalytic subunit alpha isoform (Homo sapiens) (UniProt P42336); test: as §1
[11] = test system: Phosphatidylinositol 4,5-bisphosphate 3-kinase catalytic subunit alpha isoform (Homo sapiens), P42336 [M1043I]; test: as §1
[12] = test system: Phosphatidylinositol 4,5-bisphosphate 3-kinase catalytic subunit alpha isoform (Homo sapiens), P42336 [E545A]; test: as §1
Chain of Phosphatidylinositol 4,5-bisphosphate 3-kinase catalytic subunit alpha isoform (Homo sapiens), P42336 [E545A] (P42336 whole entry E545A, canonical isoform): as the sequence (P42336 whole entry Q546K, canonical isoform) above, with E545A, K546Q counted along it

[13] = test system: Phosphatidylinositol 4,5-bisphosphate 3-kinase catalytic subunit alpha isoform (Homo sapiens), P42336 [C420R]; test: as §1
Chain of Phosphatidylinositol 4,5-bisphosphate 3-kinase catalytic subunit alpha isoform (Homo sapiens), P42336 [C420R] (P42336 whole entry C420R, canonical isoform): as the sequence (P42336 whole entry Q546K, canonical isoform) above, with C420R, K546Q counted along it

[14] = test system: Phosphatidylinositol 4,5-bisphosphate 3-kinase catalytic subunit alpha isoform (Homo sapiens), P42336 [H1047Y]; test: as §1
[15] = test system: Phosphatidylinositol 4,5-bisphosphate 3-kinase catalytic subunit alpha isoform (Homo sapiens), P42336 [H1047L]; test: as §1
Chain of Phosphatidylinositol 4,5-bisphosphate 3-kinase catalytic subunit alpha isoform (Homo sapiens), P42336 [H1047L] (P42336 whole entry H1047L, canonical isoform): as the sequence (P42336 whole entry Q546K, canonical isoform) above, with K546Q, H1047L counted along it

[16] = test system: Phosphatidylinositol 4,5-bisphosphate 3-kinase catalytic subunit alpha isoform (Homo sapiens), P42336 [E542K]; test: as §1
[17] = test system: Phosphatidylinositol 4,5-bisphosphate 3-kinase catalytic subunit alpha isoform (Homo sapiens), P42336 [I800L]; test: as §1
[18] = biological target: Potassium voltage-gated channel subfamily A member 5 (Homo sapiens) (UniProt P22460); test: Selectivity interaction (Panel of kinases, GPCRs, ion channels and transporters (enzymatic assay)) EUB0000223bCl KCNA5
Chain of Potassium voltage-gated channel subfamily A member 5 (Homo sapiens) (P22460 whole entry): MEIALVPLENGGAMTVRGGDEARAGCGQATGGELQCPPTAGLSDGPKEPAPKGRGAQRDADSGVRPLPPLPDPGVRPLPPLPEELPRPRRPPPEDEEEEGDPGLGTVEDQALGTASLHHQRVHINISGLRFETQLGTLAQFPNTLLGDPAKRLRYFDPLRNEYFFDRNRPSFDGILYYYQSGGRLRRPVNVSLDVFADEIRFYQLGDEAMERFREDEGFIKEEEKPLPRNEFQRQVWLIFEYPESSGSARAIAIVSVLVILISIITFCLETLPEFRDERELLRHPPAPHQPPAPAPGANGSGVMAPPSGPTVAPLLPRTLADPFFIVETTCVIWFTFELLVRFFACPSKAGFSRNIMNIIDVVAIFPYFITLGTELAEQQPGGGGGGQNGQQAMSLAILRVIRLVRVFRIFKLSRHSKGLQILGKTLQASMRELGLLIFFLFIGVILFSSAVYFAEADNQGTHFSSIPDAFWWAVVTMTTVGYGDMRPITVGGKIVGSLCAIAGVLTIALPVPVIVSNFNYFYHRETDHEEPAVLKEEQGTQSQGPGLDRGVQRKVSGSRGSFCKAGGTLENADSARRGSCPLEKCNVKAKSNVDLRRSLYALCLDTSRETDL

## CCn1c(-c2nc3cc(C(=O)N4CCCC(N)C4)ccc3n2C)cc2ccccc21 (centres undefined)
[1]
  pXC50: < 4.3 M

## CCC(=O)N1CC[C@H](Nc2ncnc3c2CN(c2cnc(OC)c(C(F)(F)F)c2)CC3)C1 [LENIOLISIB]
[2]
  IC50: > 30 µM

## CN1Cc2nccc(-c3cn(C)nc3-c3ccc(F)cc3)c2C1=O
[3]
  % of inhibition: 4%

## Cn1cc(-n2cnc3c(NCc4nc5cc(Cl)c(Cl)cc5[nH]4)nc(N4CCOCC4)nc32)cn1
[4]
  % of control: 5.65%

## Nc1cnc(N2CCc3cc(S(=O)(=O)Nc4c(F)cc(Cl)cc4F)cc(N4CCCC4=O)c32)nc1 [TP-020n]
[5]
  % of control: 100%

## C=CC(=O)Nc1cccc(C(=O)Nc2ccc(Nc3cc(-c4[nH]c(SC)nc4C)ccn3)cc2)c1
[6]; at 1 µM
  % of control: 87%
[6]; at 5 µM
  % of control: 60%

## CN(C)CCCOc1ccc(-c2cc(NCCCn3cccn3)nc(S(C)(=O)=O)n2)cc1
[7]
  dTM: < 2 K

## C=CC(=O)Nc1cc(-n2c(=O)ccc3cnc4ccc(-c5ccc(NS(C)(=O)=O)cc5)cc4c32)ccc1C
[8]; at 1 µM
  % of control: 100%
[8]; at 10 µM
  % of control: 35%
[9]; at 1 µM
  % of control: 100%
[9]; at 10 µM
  % of control: 74%
[10]; at 1 µM
  % of control: 68%
[10]; at 10 µM
  % of control: 9.9%
[11]; at 1 µM
  % of control: 100%
[11]; at 10 µM
  % of control: 24%
[12]; at 1 µM
  % of control: 90%
[12]; at 10 µM
  % of control: 17%
[13]; at 1 µM
  % of control: 100%
[13]; at 10 µM
  % of control: 32%
[14]; at 1 µM
  % of control: 88%
[14]; at 10 µM
  % of control: 26%
[15]; at 1 µM
  % of control: 100%
[15]; at 10 µM
  % of control: 86%
[16]; at 1 µM
  % of control: 100%
[16]; at 10 µM
  % of control: 23%
[17]; at 1 µM
  % of control: 46%
[17]; at 10 µM
  % of control: 7.6%

## COc1cc(C(=O)N2CC[C@@H](O)[C@@H](N)C2)cc2nc(-c3cc4ccccc4n3CC3CC3)n(C)c12
[18]
  pXC50: < 4.8 M
